{"source": "paper PMC6035881", "about": "(Antiviral Research, 2018)", "key": {"[1]": {"conditions": "hamster, in vivo, ip; cited from earlier work"}, "[2]": {"test_system": "RVFV (MP-12 strain)"}, "[3]": {"test_system": "RVFV (strain ZH501)", "set-up": "species or system Syrian golden hamsters", "conditions": "hamster, in vivo"}, "[4]": {"test_system": "RVFV", "conditions": "cited from earlier work"}, "[5]": {"test_system": "RVFV (strain ZH501)", "set-up": "species or system Syrian golden hamsters", "conditions": "hamster, in vivo, ip"}, "[6]": {"test_system": "RVFV", "conditions": "in vivo; cited from earlier work"}, "[7]": {"test_system": "RVFV (MP-12 strain)", "experiment": "microbe, parasite or virus in culture", "conditions": "Rift Valley fever virus, Vero 76, read-out: EC90 (VYR)"}, "[8]": {"test_system": "RVFV (MP-12 strain)", "experiment": "microbe, parasite or virus in culture", "conditions": "Rift Valley fever virus, Vero 76, 120 h, read-out: EC50 (CPE reduction assay)"}, "[9]": {"test_system": "RVFV (strain ZH501)", "set-up": "species or system Syrian golden hamsters", "conditions": "hamster, in vivo", "remark": "listed apart in the source"}, "[10]": {"test_system": "RVFV (MP-12 strain)", "remark": "listed apart in the source"}, "[11]": {"test_system": "more than 20 different viruses across eight different virus families", "conditions": "read-out: in vitro antiviral potency EC50; cited from earlier work"}, "[12]": {"experiment": "in vitro", "conditions": "African green monkey"}, "[13]": {"test_system": "RVFV", "conditions": "hamster, in vivo; cited from earlier work"}}, "note": "Values joined by “and” are separate entries in the source; they are usually repeats but may differ in a detail not shown here. Equal values may be shown once."}
{"compound": "Nc1ncnc2c([C@@H]3N[C@H](CO)[C@@H](O)[C@H]3O)c[nH]c12", "note": "[Galidesivir]", "values": [{"measurement": "maximum tolerated dose", "setting": "[1]", "result": 200, "unit": "mg/kg/day"}, {"measurement": "SI (CC50/EC90)", "setting": "[2]", "result": 7.6}, {"measurement": "animals surviving the lethal RVFV challenge", "setting": "[3]", "result": 70, "unit": "%"}, {"measurement": "protection from mortality", "setting": "[3]", "result": "up to 70%"}, {"measurement": "EC50", "setting": "[4]", "result": 41.6, "unit": "µM"}, {"measurement": "EC90", "setting": "[4]", "result": 98, "unit": "µM"}, {"measurement": "levels of virus across all tissues and serum, day 2 p.i.", "setting": "[5]", "result": "undetectable"}, {"measurement": "protection in mouse model of RVFV infection", "setting": "[6]", "result": "partial protection"}, {"measurement": "EC90", "setting": "[7]", "result": "37 µg/mL and 13.9 µM"}, {"measurement": "EC50", "setting": "[8]", "result": "54 µg/mL and 20.4 µM"}, {"measurement": "RVFV in serum, spleen or brain on day 2 p.i.", "setting": "[9]", "result": "undetectable"}, {"measurement": "animals with detectable viral load in the liver on day 2 p.i.", "setting": "[9]", "result": "only a single animal"}, {"measurement": "SI (CC50/EC50)", "setting": "[10]", "result": 5.2}, {"measurement": "EC50", "setting": "[11]", "result": "< 50", "unit": "µM"}, {"measurement": "CC50", "setting": "[12]", "result": "280 µg/mL and 106 µM"}]}
{"compound": "NC(=O)c1ncn([C@@H]2O[C@H](CO)[C@@H](O)[C@H]2O)n1", "note": "[Ribavirin, reference compound]", "values": [{"measurement": "survival", "setting": "[3]", "result": 30, "unit": "%"}, {"measurement": "virus in day 2 serum and tissue samples", "setting": "[9]", "result": "devoid of virus"}]}
{"compound": "NC(=O)c1nc(F)c[nH]c1=O", "note": "[favipiravir]", "values": [{"measurement": "hamsters protected from lethal RVFV challenge", "setting": "[13]", "result": "70–80%"}]}
